From US20040006070A1, “Intraspinal continuous infusion of midazolam hydrochloride for the treatment of pain” (priority 2002, published 2004)
Where a name gives a salt, the structure may show the parent alone.

Assay: Bloodwork: complete blood count, electrolytes, extended blood chemistry
Type: in vivo, sheep
Method: Indirect blood pressure, pulse recording, pain testing (mechanical stimulus device, cold and warm water baths see description in procedure) and weight were taken on days 1, 3, 7, 15, 22, 29, 36, and 43. Venous blood samples (15 ml drawn from the jugular vein with Vacutainer brand blood collection tubes) for complete blood count, electrolytes, and extended blood chemistry were drawn on days 1, 15, and 43 (mild procedure only light hand restraint necessary).

[1] = Double Blinded Sheep, Chemistries, Day 15
[2] = Double Blinded Sheep, Chemistries, Day 43
[3] = sheep #84 Roadrunner, 15 mg/day, Baseline
[4] = sheep #84 Roadrunner, 15 mg/day, Day 1

SMILES: Cc1ncc2n1-c1ccc(Cl)cc1C(c1ccccc1F)=NC2 [Midazolam, midazolam hydrochloride]
- ALT [1]: 10 U/L
- AST [1]: 72 U/L
- CPK [1]: 100 U/L
- Cholesterol [1]: 74 mg/dL
- Total Bili (Double Blinded Sheep, Chemistries, Day 15, reference range 0.14-0.32): 0.1 mg/dL
- Creatinine (Double Blinded Sheep, Chemistries, Day 15, reference range 1-2.7): 1.1 mg/dL
- Albumin (Double Blinded Sheep, Chemistries, Day 15, reference range 2.4-3): 3.6 g/dL
- K+ (Double Blinded Sheep, Chemistries, Day 15, reference range 3.9-5.4): 4.8 mEq/l
- Phos (Double Blinded Sheep, Chemistries, Day 15, reference range 5-7.3): 6.4 mg/dL
- Total Prot (Double Blinded Sheep, Chemistries, Day 15, reference range 6-7.9): 7.1 g/dL
- BUN (Double Blinded Sheep, Chemistries, Day 15, reference range 8-20): 25 mg/dL
- Gamma GT (Double Blinded Sheep, Chemistries, Day 15, reference range 25-59): 87 U/L
- Glucose (Double Blinded Sheep, Chemistries, Day 15, reference range 42-76): 82 mg/dL
- Alk Phos (Double Blinded Sheep, Chemistries, Day 15, reference range 68-387): 154 U/L
- Na+ (Double Blinded Sheep, Chemistries, Day 15, reference range 139-152): 146 mEq/l
- ALT [2]: 15 U/L
- AST [2]: 78 U/L
- CPK [2]: 96 U/L
- Cholesterol [2]: 80 mg/dL
- Total Bili (Double Blinded Sheep, Chemistries, Day 43, reference range 0.14-0.32): 0.1 mg/dL
- Creatinine (Double Blinded Sheep, Chemistries, Day 43, reference range 1-2.7): 1.0 mg/dL
- Albumin (Double Blinded Sheep, Chemistries, Day 43, reference range 2.4-3): 3.6 g/dL
- K+ (Double Blinded Sheep, Chemistries, Day 43, reference range 3.9-5.4): 5.7 mEq/l
- Phos (Double Blinded Sheep, Chemistries, Day 43, reference range 5-7.3): 6.9 mg/dL
- Total Prot (Double Blinded Sheep, Chemistries, Day 43, reference range 6-7.9): 6.9 g/dL
- BUN (Double Blinded Sheep, Chemistries, Day 43, reference range 8-20): 26 mg/dL
- Gamma GT (Double Blinded Sheep, Chemistries, Day 43, reference range 25-59): 73 U/L
- Glucose (Double Blinded Sheep, Chemistries, Day 43, reference range 42-76): 70 mg/dL
- Alk Phos (Double Blinded Sheep, Chemistries, Day 43, reference range 68-387): 179 U/L
- Na+ (Double Blinded Sheep, Chemistries, Day 43, reference range 139-152): 146 mEq/l
- ALT (sheep #83, 15 mg/day, Day 1): 0 U/L
- AST (sheep #83, 15 mg/day, Day 1): 102 U/L
- Alk Phos (sheep #83, 15 mg/day, Day 1): 48 U/L
- BUN (sheep #83, 15 mg/day, Day 1): 8 mg/dL
- CPK (sheep #83, 15 mg/day, Day 1): 65 U/L
- Cholesterol (sheep #83, 15 mg/day, Day 1): 47 mg/dL
- Differential Count: Eosin (sheep #83, 15 mg/day, Day 1): 1%
- Differential Count: Lymph (sheep #83, 15 mg/day, Day 1): 55%
- Differential Count: Mono (sheep #83, 15 mg/day, Day 1): 5%
- Differential Count: Seg (sheep #83, 15 mg/day, Day 1): 39%
- Gamma GT (sheep #83, 15 mg/day, Day 1): 62 U/L
- Glucose (sheep #83, 15 mg/day, Day 1): 78 mg/dL
- Hct (sheep #83, 15 mg/day, Day 1): 37.2%
- Hgb (sheep #83, 15 mg/day, Day 1): 12.7 g/dL
- MCH (sheep #83, 15 mg/day, Day 1): 11.3 pg
- MCHC (sheep #83, 15 mg/day, Day 1): 34.0 g/dL
- MCV (sheep #83, 15 mg/day, Day 1): 33.2 fL
- Na+ (sheep #83, 15 mg/day, Day 1): 148 mEq/l
- Platlet Count (sheep #83, 15 mg/day, Day 1): 879000 µL⁻¹
- RBC (sheep #83, 15 mg/day, Day 1): 1.12e+07 µL⁻¹
- WBC (sheep #83, 15 mg/day, Day 1): 5320 µL⁻¹
- Total Bili (sheep #83, 15 mg/day, Day 1, ref 0.14-0.32): 0.1 mg/dL
- Creatinine (sheep #83, 15 mg/day, Day 1, ref 1-2.7): 1.4 mg/dL
- Albumin (sheep #83, 15 mg/day, Day 1, ref 2.4-3): 3.3 g/dL
- K+ (sheep #83, 15 mg/day, Day 1, ref 3.9-5.4): 4.2 mEq/l
- Phos (sheep #83, 15 mg/day, Day 1, ref 5-7.3): 7.1 mg/dL
- Total Prot (sheep #83, 15 mg/day, Day 1, ref 6-7.9): 6.1 g/dL
- ALT (sheep #83, 15 mg/day, Day 15): 8 U/L
- AST (sheep #83, 15 mg/day, Day 15): 52 U/L
- Alk Phos (sheep #83, 15 mg/day, Day 15): 90 U/L
- BUN (sheep #83, 15 mg/day, Day 15): 90 mg/dL
- CPK (sheep #83, 15 mg/day, Day 15): 107 U/L
- Cholesterol (sheep #83, 15 mg/day, Day 15): 65 mg/dL
- Differential Count: Eosin (sheep #83, 15 mg/day, Day 15): 1%
- Differential Count: Lymph (sheep #83, 15 mg/day, Day 15): 68%
- Differential Count: Mono (sheep #83, 15 mg/day, Day 15): 2%
- Differential Count: Seg (sheep #83, 15 mg/day, Day 15): 29%
- Gamma GT (sheep #83, 15 mg/day, Day 15): 72 U/L
- Glucose (sheep #83, 15 mg/day, Day 15): 66 mg/dL
- Hct (sheep #83, 15 mg/day, Day 15): 33.2%
- Hgb (sheep #83, 15 mg/day, Day 15): 11.5 g/dL
- MCH (sheep #83, 15 mg/day, Day 15): 11.4 pg
- MCHC (sheep #83, 15 mg/day, Day 15): 34.7 g/dL
- MCV (sheep #83, 15 mg/day, Day 15): 33.0 fL
- Na+ (sheep #83, 15 mg/day, Day 15): 147 mEq/l
- Platlet Count (sheep #83, 15 mg/day, Day 15): 296000 µL⁻¹
- RBC (sheep #83, 15 mg/day, Day 15): 1e+07 µL⁻¹
- WBC (sheep #83, 15 mg/day, Day 15): 4390 µL⁻¹
- Total Bili (sheep #83, 15 mg/day, Day 15, ref 0.14-0.32): 0.1 mg/dL
- Creatinine (sheep #83, 15 mg/day, Day 15, ref 1-2.7): 1.2 mg/dL
- Albumin (sheep #83, 15 mg/day, Day 15, ref 2.4-3): 3.3 g/dL
- K+ (sheep #83, 15 mg/day, Day 15, ref 3.9-5.4): 4.5 mEq/l
- Phos (sheep #83, 15 mg/day, Day 15, ref 5-7.3): 5.1 mg/dL
- Total Prot (sheep #83, 15 mg/day, Day 15, ref 6-7.9): 5.9 g/dL
- ALT (sheep #83, 15 mg/day, Day 43): 6 U/L
- AST (sheep #83, 15 mg/day, Day 43): 53 U/L
- Alk Phos (sheep #83, 15 mg/day, Day 43): 96 U/L
- BUN (sheep #83, 15 mg/day, Day 43): 14 mg/dL
- CPK (sheep #83, 15 mg/day, Day 43): 49 U/L
- Cholesterol (sheep #83, 15 mg/day, Day 43): 52 mg/dL
- Differential Count: Atyp lym (sheep #83, 15 mg/day, Day 43): 2%
- Differential Count: Eosin (sheep #83, 15 mg/day, Day 43): 3%
- Differential Count: Lymph (sheep #83, 15 mg/day, Day 43): 70%
- Differential Count: Mono (sheep #83, 15 mg/day, Day 43): 3%
- Differential Count: Seg (sheep #83, 15 mg/day, Day 43): 22%
- Gamma GT (sheep #83, 15 mg/day, Day 43): 54 U/L
- Glucose (sheep #83, 15 mg/day, Day 43): 83 mg/dL
- Hct (sheep #83, 15 mg/day, Day 43): 34.9%
- Hgb (sheep #83, 15 mg/day, Day 43): 11.9 g/dL
- MCH (sheep #83, 15 mg/day, Day 43): 11.1 pg
- MCHC (sheep #83, 15 mg/day, Day 43): 31.1 g/dL
- MCV (sheep #83, 15 mg/day, Day 43): 32.5 fL
- Na+ (sheep #83, 15 mg/day, Day 43): 149 mEq/l
- Platlet Count (sheep #83, 15 mg/day, Day 43): 576000 µL⁻¹
- RBC (sheep #83, 15 mg/day, Day 43): 1.07e+07 µL⁻¹
- WBC (sheep #83, 15 mg/day, Day 43): 4770 µL⁻¹
- Total Bili (sheep #83, 15 mg/day, Day 43, ref 0.14-0.32): 0.1 mg/dL
- Creatinine (sheep #83, 15 mg/day, Day 43, ref 1-2.7): 1.3 mg/dL
- Albumin (sheep #83, 15 mg/day, Day 43, ref 2.4-3): 3.6 g/dL
- K+ (sheep #83, 15 mg/day, Day 43, ref 3.9-5.4): 4.9 mEq/l
- Phos (sheep #83, 15 mg/day, Day 43, ref 5-7.3): 6.2 mg/dL
- Total Prot (sheep #83, 15 mg/day, Day 43, ref 6-7.9): 6.6 g/dL
- Differential Count: Eosin [3]: 5%
- Differential Count: Lymph [3]: 62%
- Differential Count: Mono [3]: 1%
- Differential Count: Seg [3]: 32%
- Hct [3]: 41.9%
- Hgb [3]: 15.0 g/dL
- MCH [3]: 10.7 pg
- MCHC [3]: 35.7 g/dL
- MCV [3]: 30.0 fL
- Platlet Count [3]: 721000 µL⁻¹
- RBC [3]: 1.4e+07 µL⁻¹
- WBC [3]: 5790 µL⁻¹
- ALT [4]: 9 U/L
- AST [4]: 100 U/L
- Albumin [4]: 3.3 g/dL
- Alk Phos [4]: 93 U/L
- BUN [4]: 7 mg/dL
- CPK [4]: 90 U/L
- Cholesterol [4]: 45 mg/dL
- Creatinine [4]: 1.2 mg/dL
- Differential Count: Eosin [4]: 8%
- Differential Count: Lymph [4]: 43%
- Differential Count: Mono [4]: 3%
- Differential Count: Seg [4]: 46%
- Gamma GT [4]: 51 U/L
- Glucose [4]: 69 mg/dL
- Hct [4]: 35.7%
- Hgb [4]: 12.9 g/dL
- K+ [4]: 4.8 mEq/l
- MCH [4]: 11.0 pg
- MCHC [4]: 36.1 g/dL
- MCV [4]: 30.4 fL
- Na+ [4]: 148 mEq/l
- Phos [4]: 6.2 mg/dL
- Platlet Count [4]: 962000 µL⁻¹
- RBC [4]: 1.17e+07 µL⁻¹
